Experimental data published in publication PMC12040169 (PLOS Biology, 2025).

assay: in vitro; conditions: human, hela cells, % viability

| Structure (SMILES) | viability at 28.5 h, 10 µM |
| --- | --- |
| O=C(Nc1ccc(N2CCOCC2)c2nonc12)c1cc(-c2cccnc2)nc2ccc(Cl)cc12 [CBK267724] | 89.8% |
| O=[N+]([O-])c1ccc(S(=O)(=O)NCCSCc2cccc(Cl)c2)cc1 [CBK268066] | 107% |
| CCn1cc(CN2CCCN(C(=O)c3cc(C4CC4)on3)CC2)cn1 [CBK305401] | 88.1% |
| CC(C)c1nn(C)c(N(C)C)c1CNCc1cscn1 [CBK304321C] | 84.4% |
| CC1(C)OC(=O)CC1C(=O)N1CCCC(COc2ccccc2F)C1 (stereo not shown) [CBK282098] | 100% |
| Cc1cnn(C2CCN(C(=O)NC(C)C3OCCc4sccc43)C2)c1 (stereo not shown) [CBK304159] | 96.8% |
| O=C(N/N=C/c1ccc(O)cc1O)c1[nH]c2ccc([N+](=O)[O-])cc2c1-c1ccccc1 [CBK263328] | 69.7% |
| O=C(NCc1cccs1)NC1CCCc2c1cnn2CCO (stereo not shown) [CBK305658] | 100% |
| Nc1ncc(-c2ccco2)nc1N1CCOCC1 [CBK063456] | 80.2% |
| Cc1cc(OCC(=O)N2CCC(C(=O)Nc3ccccc3)CC2)no1 [CBK305067] | 99.5% |
| Cc1c(Cl)cccc1NC(=O)c1cnc2sccn2c1=O [CBK246518] | 115% |
| Cc1nc(CN2[C@H]3CCCCC(=O)N[C@@]3(C)C[C@H]2c2cccc(C(F)(F)F)c2)cs1 [CBK285701] | 91.1% |
| O=C1NC(=O)C(CCCCN2CCCC3(CCN(C(=O)c4ccoc4)C3)C2)N1 (stereo not shown) [CBK132833] | 96.8% |
| Cc1ncc(C(=O)NC2(c3cccc(F)c3)CCCC2)c(C)n1 [CBK283273] | 89.4% |
| COCCN(C(=O)CCC(=O)NCCc1ccccc1)C1CCN(C)CC1 [CBK014576] | 96.9% |
| COc1cc([C@@]23CC[C@@H](NC(=O)Nc4cc(F)ccc4F)C[C@@H]2N(C)CC3)ccc1OC(F)F [CBK073834] | 106% |
| COc1ncc(-c2ccc(N3CCN(c4ccncc4)CC3)nc2)c(OC)n1 [CBK036848] | 99.1% |
| Fc1ccc(Oc2nccnc2N2CCN(Cc3ccc(Cl)c(Cl)c3)CC2)cc1 [CBK083007T] | 92.3% |
| O=C(O)c1cc(S(=O)(=O)N2CCCCC2)ccc1O [CBK286595] | 89.6% |
| Cc1nc(C)n(CC2CCCN(Cc3cc(C#N)cs3)C2)n1 (stereo not shown) [CBK304787] | 92% |
| O=C(O)CS(=O)(=O)c1ccc(Cl)cc1 [CBK262036G] | 114% |
| COc1ccc(-c2nn(-c3ccccc3)cc2C(=O)Nc2ccc(C(=O)O)cc2)cc1 [CBK296121] | 106% |

| Structure (SMILES) | viability at 28.5 h, 10 µM |
| --- | --- |
| CCc1ccc2occ(CC(=O)Nc3ccc(C(=O)OC)cc3)c2c1 [CBK268318] | 105% |
| Cc1ccc(Sc2nccn3c(=O)[nH]nc23)c(C)c1 [CBK288055] | 101% |
| COc1ccc(-c2cc(C(=O)NCC(F)(F)F)cnc2-c2ccc(Cl)cc2)cn1 [CBK036698] | 103% |
| [O-][S+]1c2ccccc2Oc2ccccc21 [CBK027634] | 94.7% |
| O=C(Nc1ccc2nc(-c3ccco3)c(-c3ccco3)nc2c1)N1CCCCCC1 [CBK267253] | 85.4% |
| O=c1c(Cc2ccccc2)c(O)c2ccccc2n1Cc1ccccc1 [CBK219368] | 85.8% |
| O=C1NC2(CCC(=O)N(Cc3ccccc3)CC2)Oc2ccccc21 (stereo not shown) [CBK284438] | 91.6% |
| O=C(NCCCNC(=O)c1ccccn1)c1ccc(Cl)cc1 [CBK269193] | 88.5% |
| O=C(O)c1ccc(-n2cccc2)cc1 [CBK016141] | 110% |
| CC(C)c1nc(CCN(C)C(=O)NCc2cnc3cnccn23)no1 [CBK307666] | 108% |
| CCOC(=O)N1CCC(NS(=O)(=O)c2ccc(NC(C)=O)cc2)CC1 [CBK045470] | 97.8% |
| COc1ccc(CN2CCCN(c3cc(OC4CCCCC4)ncn3)CC2)cc1 [CBK083278T] | 107% |
| O=S1(=O)Cc2ccccc2C(Oc2cncc(N3CCNCC3)n2)C1 (stereo not shown) [CBK172344T] | 91.2% |
| Cc1ccc(-n2cc(CN(C)CC3(C)COC3)cn2)cc1 [CBK281720] | 93% |
| CN(c1ncccc1CNC(=O)c1c[nH]c(=O)c(Cl)c1)C1CCCCC1 [CBK307267] | 92.6% |
| Cc1cc(CN(C)Cc2cnn(-c3ccc(F)cc3)c2)n[nH]1 [CBK281706] | 97.1% |
| CCN1CCN(C(=O)c2csnn2)CC1 [CBK200376] | 92.5% |
| Cn1nc(-c2ccc(S(=O)(=O)Nc3cccc(C(=O)O)c3)s2)cc1C(F)(F)F [CBK155080] | 86.9% |
| O=C(c1ccco1)N1CCC(n2c(=O)oc3ccccc32)CC1 [CBK284350] | 92.8% |
| Cc1nnc(C(C)Sc2nnc(-c3ccc(F)cc3)n2CC2CCCO2)o1 (stereo not shown) [CBK298298] | 94.4% |
| Cc1sc2ncnc(N3CCCC3Cn3cccn3)c2c1C (stereo not shown) [CBK304570] | 90.9% |
| O=C1C=CC2=C3Oc4c(ccc5cc(O)ccc45)C(c4ccccc4C(=O)O)C3C=CC2=C1 (stereo not shown) [CBK278169N] | 82.8% |

| Structure (SMILES) | viability at 28.5 h, 10 µM |
| --- | --- |
| COc1cccc2sc(Nc3nc(C)c(C(C)=O)s3)nc12 [CBK287471] | 109% |
| c1ccc(-c2nccnc2OCCc2cccs2)cc1 [CBK106673] | 103% |
| O=S(=O)(Nc1nc(-c2c(F)cccc2Cl)cs1)c1cc(Cl)c(Cl)s1 [CBK200025] | 92.8% |
| COc1ccc(C(C)C)cc1-c1cncc(N2CCN(c3ccccc3C#N)CC2)n1 [CBK037927] | 98.8% |
| Cc1cccnc1C1(O)CCN(C(=O)Cc2ccccc2F)CC1 [CBK283617] | 97.8% |
| CSc1nc(Cl)c(-c2ccccc2)c(N(C)C)n1 [CBK023169] | 96.9% |
| COc1cc(/C=C2\SC(=S)N(c3cccc(C(=O)O)c3)C2=O)cc([N+](=O)[O-])c1O [CBK265281] | 96.2% |
| CC12CCCC(=O)N1C(CO)C(c1ccccc1)O2 (stereo not shown) [CBK011013] | 91.2% |
| CCN1CCc2cc(-c3cncn3CCCn3nc(C)cc3C)ccc21 [CBK281572] | 104% |
| CSc1nnc(-c2ccccc2[N+](=O)[O-])n1CC(C)C [CBK074959] | 98.4% |
| CC(C)(C)OC(=O)N1CC2(C1)N=C1C=C(C(C)(C)C)ON1[C@H]1[C@H](O)[C@H](O)C[C@H]12 [CBK303240] | 97.6% |
| CN(C)C(=O)c1ccc(-c2ccc(OC3CCN(C(=O)CCC(=O)N4CCCC4)CC3)nc2)cc1 [CBK155051] | 108% |
| Cc1nc(N)sc1-c1csc(Nc2cccc(C(F)(F)F)c2)n1 [CBK267357] | 95.2% |
| Cc1nc(-c2ccco2)nc2sc(C(=O)NCc3nnc4ccccn34)c(C)c12 [CBK297773] | 107% |
| O=C(Cn1cc(C(=O)NC2(c3ccccc3)CCCC2)ccc1=O)NCc1ccc(F)cc1 [CBK286027] | 84.4% |
| O=[N+]([O-])c1cnc(NS(=O)(=O)c2cccc(C(F)(F)F)c2)s1 [CBK067533] | 104% |
| O=C(Nc1ccccc1N1CCN(C(=O)c2ccc(Cl)cc2)CC1)c1ccc(-c2cc3ccccc3oc2=O)cc1 [CBK267280] | 92.3% |
| O=c1n(C(c2ccccc2)c2ccccc2)ccn1S(=O)(=O)c1cccc(Cl)c1 [CBK106615] | 91.5% |
| CC(=O)N1CCC[C@@H](N)[C@@H]1c1ccccc1F [CBK281562] | 111% |
| CC(C)CNc1nc2c(ncn2[C@H]2C[C@@H](O)[C@@H](CO)O2)c(=O)[nH]1 [CBK201198] | 94.8% |
| CCNC(=O)Nc1ccccc1C(=O)NC1CCCCC1 [CBK175266] | 89.6% |
| CCNC(=O)N1C[C@@H]2OCC(=O)N(Cc3cccnc3)[C@@H]2C1 [CBK289682] | 109% |

| Structure (SMILES) | viability at 28.5 h, 10 µM |
| --- | --- |
| O=C(CCn1ccc2ccncc21)NCCc1c[nH]c2ccccc12 [CBK284760] | 99% |
| Nc1ccc(-c2ncccc2O)cc1 [CBK262937C] | 106% |
| Cn1cc(C(=O)OCc2cccc(S(=O)(=O)N3CCOCC3)c2)cn1 [CBK305721] | 88.1% |
| N=C1NC(=O)/C(=C/c2cccc(OCc3cccc4ccccc34)c2)S1 [CBK263610] | 93.9% |
| O=C(CCCCCN1C(=O)c2cccc3cccc(c23)C1=O)NO [CBK261295] | 55.6% |
| COC(=O)C(N)c1c[nH]c2ccccc12 (stereo not shown) [CBK089840] | 104% |
| O=C(c1ccccc1Nc1cccc(C(F)(F)F)c1)N1CCN(c2ccccn2)CC1 [CBK012634] | 94.4% |
| Cc1cccc(OCC(=O)NCCCc2ccccc2)c1C [CBK265507] | 99.9% |
| COc1ccc(OC(=O)C2CCN(C(=O)CC(C)C)CC2)c([N+](=O)[O-])c1 [CBK154770] | 97.4% |
| Cc1ccc2cc(S(=O)(=O)Nc3cccc(C(=O)O)c3)ccc2c1 [CBK299812] | 101% |
| O=C(Nc1nc(-c2cccnc2)cs1)c1cccc(N2C(=O)CCC2=O)c1 [CBK287564] | 108% |
| COc1ccccc1CNc1ncnc2[nH]ncc12 [CBK288100] | 99.5% |
| CCCC/C=C/c1nccnc1NCc1ccc(C(F)(F)F)cc1 [CBK038077] | 94.4% |
| CCCNC(=O)N1CCN2C(=O)c3cc(-c4ccccc4F)ccc3NC(=O)[C@@H]2C1 [CBK289595] | 95.5% |
| Cc1cc(N2CCOCC2)ccc1NC(=O)CCOc1cccc(Cl)c1 [CBK305724] | 102% |
| O=c1c([N+](=O)[O-])c(O)c2ccccc2n1-c1ccccc1 [CBK115316] | 97.5% |
| O=C(N/N=C/c1ccccc1O)c1ccn(Cc2ccc(Cl)cc2)n1 [CBK262770] | 91.3% |
| CN(C)S(=O)(=O)c1ccc(C(=O)Nc2ccc(Br)cc2C(=O)c2ccccc2)cc1 [CBK263243] | 81.1% |
| Cc1nc2c(C(=O)N3CCNC(=O)C3)cnn2c(C)c1Cc1ccccc1 [CBK162197] | 90.3% |
| C=CCNC(=O)N[C@H]1C[C@H]2C(=O)Nc3cc(Cl)ccc3C(=O)N2C1 [CBK289365] | 92.5% |
| Oc1cccc(OCCOc2cc(C(F)(F)F)ccn2)c1 [CBK115788] | 84.8% |

same assay, conditions: human, hela cells, % viability, bulk resorufin, single well

| Structure (SMILES) | viability at 28.5 h, 10 µM |
| --- | --- |
| CC(C)(N)C(=O)N1CCC2(CC1)OCc1cc(-c3ccc(S(C)(=O)=O)nc3)ccc1O2 [CBK160868] | 93.3% |
